Values after ≈ are worked out from the molar mass of the structure shown. Like-named read-outs stand apart in the source and are kept apart here. Values belong to the compound of their own block, whether it stands above or below them.
Assays:
[1] = system: thermal and mechanical sensitivities; RS and NOx levels; format: in vivo, Swiss mice; conditions: 1 mg kg-1, intragastric route
C. neoformans (ATCC H99) = assay: microbe, parasite or virus in culture; format: cell-based; conditions: Cryptococcus neoformans
α-synuclein = α-synuclein (Homo sapiens, UniProt P37840); format: cell-based, Saccharomyces cerevisiae; conditions: 0.1 mM, without fermentation
Drosophila melanogaster = conditions: 48 hours
[2] = 2 mg/ml
[3] = system: MV released from growth-plate femurs chondrocytes; format: biochemical, chicken
[4] = system: learning and memory behavior; format: in vivo, Swiss mice; conditions: 10mg/kg, intragastrically
[5] = target: TRPV1 channel heterologously expressed in HEK293 cells (Homo sapiens, UniProt Q8NER1); assay: cell-based; conditions: HEK293, read-out: % inhibition of capsaicin-induced TRPV1 currents
[6] = system: glycated human erythrocyte; format: cell-based
K562 = format: cell-based
[7] = target: dihydroorotate dehydrogenase from Schistosoma mansoni (SmDHODH) (Schistosoma mansoni, UniProt G4VFD7)
gill V(H+)-ATPase = format: biochemical, Macrobrachium amazonicum; conditions: read-out: constant enzyme inhibitor, 25 °C
[8] = system: CE-AρBza serine proteases; format: biochemical, Canavalia ensiformis
[9] = system: Leishmania braziliensis old yellow enzyme (LbOYE); format: biochemical
S. saprophyticus = format: cell-based
IGR39 cells = format: cell-based
[10] = target: Ca2+-dependent BK channel (Homo sapiens, UniProt Q12791); format: cell-based
[11] = system: oral streptococci biofilm; format: cell-based, Streptococcus; conditions: all species
rat serum albumin (RSA) = rat serum albumin (RSA) (Rattus norvegicus, UniProt P02770); format: binding; conditions: interaction density function method; two cooperative sites
paw edema = conditions: in vivo
[12] = system: inflammation, nociception and oxidative stress; conditions: mouse, in vivo
LUCENA cells = format: cell-based
K562 cells = format: cell-based

TRPV1 channel heterologously expressed in HEK293 cells, sequence (Q8NER1 whole entry): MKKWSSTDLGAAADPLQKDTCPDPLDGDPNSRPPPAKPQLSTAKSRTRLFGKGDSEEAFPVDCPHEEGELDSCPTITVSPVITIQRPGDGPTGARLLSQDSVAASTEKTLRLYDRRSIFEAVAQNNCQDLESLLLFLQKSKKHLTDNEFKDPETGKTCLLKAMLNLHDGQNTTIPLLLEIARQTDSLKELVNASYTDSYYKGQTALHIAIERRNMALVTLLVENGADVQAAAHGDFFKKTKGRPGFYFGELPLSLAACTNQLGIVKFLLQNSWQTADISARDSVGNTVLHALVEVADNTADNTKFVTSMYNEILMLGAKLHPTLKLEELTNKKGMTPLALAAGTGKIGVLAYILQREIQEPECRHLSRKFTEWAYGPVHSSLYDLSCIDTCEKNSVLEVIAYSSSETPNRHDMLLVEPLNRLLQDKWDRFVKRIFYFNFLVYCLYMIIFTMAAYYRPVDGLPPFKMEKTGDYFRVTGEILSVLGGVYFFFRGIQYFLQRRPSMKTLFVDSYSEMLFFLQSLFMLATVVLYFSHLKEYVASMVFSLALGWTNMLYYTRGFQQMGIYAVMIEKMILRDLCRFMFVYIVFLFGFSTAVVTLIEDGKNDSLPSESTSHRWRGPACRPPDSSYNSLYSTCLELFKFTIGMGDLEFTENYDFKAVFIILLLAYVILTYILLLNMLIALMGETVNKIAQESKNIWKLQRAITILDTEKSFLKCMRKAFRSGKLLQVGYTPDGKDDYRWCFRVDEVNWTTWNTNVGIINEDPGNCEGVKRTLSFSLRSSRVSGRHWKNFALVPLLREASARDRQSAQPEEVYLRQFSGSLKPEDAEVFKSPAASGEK
Ca2+-dependent BK channel, sequence (Q12791 whole entry): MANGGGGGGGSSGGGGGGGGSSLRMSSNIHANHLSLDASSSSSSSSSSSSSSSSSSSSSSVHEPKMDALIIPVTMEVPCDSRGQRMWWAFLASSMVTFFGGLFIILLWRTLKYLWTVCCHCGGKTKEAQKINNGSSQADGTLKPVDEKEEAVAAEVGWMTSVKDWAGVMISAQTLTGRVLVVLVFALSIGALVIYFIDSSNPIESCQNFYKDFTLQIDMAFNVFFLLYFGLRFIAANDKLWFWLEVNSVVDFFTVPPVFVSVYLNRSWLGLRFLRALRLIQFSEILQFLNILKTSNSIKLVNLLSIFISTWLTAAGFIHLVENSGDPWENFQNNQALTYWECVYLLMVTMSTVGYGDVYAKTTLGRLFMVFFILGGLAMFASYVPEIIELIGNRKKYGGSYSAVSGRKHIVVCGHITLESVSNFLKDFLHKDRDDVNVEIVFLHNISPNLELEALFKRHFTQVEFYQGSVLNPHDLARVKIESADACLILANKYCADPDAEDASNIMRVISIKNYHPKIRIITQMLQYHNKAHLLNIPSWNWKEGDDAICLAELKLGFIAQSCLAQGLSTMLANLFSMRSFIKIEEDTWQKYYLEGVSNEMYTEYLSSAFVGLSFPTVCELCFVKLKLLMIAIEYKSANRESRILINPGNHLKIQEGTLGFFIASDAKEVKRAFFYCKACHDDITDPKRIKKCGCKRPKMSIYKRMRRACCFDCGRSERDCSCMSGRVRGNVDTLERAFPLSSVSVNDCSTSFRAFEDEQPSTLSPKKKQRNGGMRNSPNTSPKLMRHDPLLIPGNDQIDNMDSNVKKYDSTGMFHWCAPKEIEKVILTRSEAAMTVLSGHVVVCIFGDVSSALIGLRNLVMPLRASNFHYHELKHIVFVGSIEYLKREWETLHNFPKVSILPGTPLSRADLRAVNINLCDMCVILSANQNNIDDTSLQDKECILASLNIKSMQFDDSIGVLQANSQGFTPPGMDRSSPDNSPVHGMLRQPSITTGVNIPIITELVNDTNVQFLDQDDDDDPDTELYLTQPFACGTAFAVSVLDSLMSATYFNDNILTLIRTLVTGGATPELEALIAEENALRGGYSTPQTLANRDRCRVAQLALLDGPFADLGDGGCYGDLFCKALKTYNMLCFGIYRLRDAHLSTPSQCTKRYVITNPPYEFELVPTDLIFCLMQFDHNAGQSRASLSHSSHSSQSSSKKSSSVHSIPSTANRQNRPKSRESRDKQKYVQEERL
dihydroorotate dehydrogenase from Schistosoma mansoni (SmDHODH), sequence (G4VFD7 23-379 limits assumed): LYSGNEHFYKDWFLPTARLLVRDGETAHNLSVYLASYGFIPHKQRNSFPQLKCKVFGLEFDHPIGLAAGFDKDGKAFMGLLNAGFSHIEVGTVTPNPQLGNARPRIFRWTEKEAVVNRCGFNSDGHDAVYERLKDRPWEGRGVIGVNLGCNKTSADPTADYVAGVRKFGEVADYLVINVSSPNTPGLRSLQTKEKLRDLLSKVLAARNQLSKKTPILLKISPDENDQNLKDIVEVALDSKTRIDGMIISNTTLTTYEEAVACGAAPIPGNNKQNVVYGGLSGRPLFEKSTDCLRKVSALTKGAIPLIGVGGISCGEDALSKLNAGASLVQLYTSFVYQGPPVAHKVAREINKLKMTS
rat serum albumin (RSA), sequence (P02770 25-608): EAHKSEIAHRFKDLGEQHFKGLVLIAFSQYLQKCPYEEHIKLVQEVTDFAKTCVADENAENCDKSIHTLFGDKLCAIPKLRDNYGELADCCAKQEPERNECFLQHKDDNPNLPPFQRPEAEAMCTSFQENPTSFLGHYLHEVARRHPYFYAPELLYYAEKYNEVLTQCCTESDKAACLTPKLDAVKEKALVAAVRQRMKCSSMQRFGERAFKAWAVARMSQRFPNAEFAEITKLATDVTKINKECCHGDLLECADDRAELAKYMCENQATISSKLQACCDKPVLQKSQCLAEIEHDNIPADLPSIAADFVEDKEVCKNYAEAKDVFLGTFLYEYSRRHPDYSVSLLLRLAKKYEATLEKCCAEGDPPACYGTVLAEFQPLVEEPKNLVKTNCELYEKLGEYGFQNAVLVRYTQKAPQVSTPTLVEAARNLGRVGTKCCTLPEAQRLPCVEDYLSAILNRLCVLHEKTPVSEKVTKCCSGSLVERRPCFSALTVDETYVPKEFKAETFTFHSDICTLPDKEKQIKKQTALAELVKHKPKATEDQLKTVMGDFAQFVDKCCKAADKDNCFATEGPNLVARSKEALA

Compound: Clc1ccc2c([Se]c3ccccc3)ccnc2c1 [4-PSQ, 7-Chloro-4-(phenylselanyl) quinoline]
hypersensitivity [1]: reversed hypersensitivity induced by OXA and aging
RS and NOx levels ([1]; both ages): reduced the RS and NOx levels

MIC (C. neoformans (ATCC H99)): 0.047 to 3.12 µM (≈ 0.0125 to 0.829 µg/mL)
Compound: CCCSc1ccc2nc(NC(=O)OC)[nH]c2c1 [Albendazole]

protein aggregation (α-synuclein): did not inhibit
Compound: O=C(/C=C/c1ccc(O)c(O)c1)OCCc1ccccc1 [CAPE, phenethyl ester of caffeic acid]

Compound: COc1cc2c(c(OC)c1OC)-c1ccc(OC)c(=O)cc1[C@@H](NC(C)=O)CC2 [COL, colchicine]
survival rate (Drosophila melanogaster; 0.001-0.010 mg/mL): did not affect the fly survival rate
TBARS levels (Drosophila melanogaster): elevated in the 0.0025 mg/mL and 0.005 mg/mL groups
reactive species (RS) levels (Drosophila melanogaster): increase in RS levels at concentrations of 0.0025 and 0.005 mg/mL

degradation [2]: highly sucesptible to degradation
Compound: CC1=C(C(=O)O)N2C(=O)[C@@H](NC(=O)[C@H](N)c3ccccc3)[C@H]2SC1 [Cephalexin]

Compound: c1ccc([C@H]2CN3CCSC3=N2)cc1 [Levamisole]
effectiveness of inhibition of MV activity compared with ouabain [3]: more effective

Compound: COc1ccc(Sc2ccc3nsnc3c2)cc1 [MTDZ, 5-((4-methoxyphenyl)thio)benzo[c][1,2,5]thiadiazole]
behavioral changes caused by SCO [4]: attenuated the behavioral changes caused by SCO

inhibition at 0.1 µM [5]: 62 ± 8%
Compound: CC(C)(O)c1ccccc1CC[C@@H](SCC1(CC(=O)O)CC1)c1cccc(/C=C/c2ccc3ccc(Cl)cc3n2)c1 [Montelukast]

inhibition at 0.1 µM [5]: 60 ± 7%
Compound: CO[C@@H]1[C@@H](OC(N)=O)[C@@H](O)[C@H](Oc2ccc3c(O)c(NC(=O)c4ccc(O)c(CC=C(C)C)c4)c(=O)oc3c2C)OC1(C)C [Novobiocin]

Compound: CC(C)c1cccc(C(C)C)c1O [P, propofol]
deformability index (DI) [6]: decreases
erythrocyte elastic modulus (μ) [6]: significant increase

Compound: CC(=O)O[C@H]1C[C@@H]2CC[C@@H]3[C@H](CC[C@@]4(C)[C@H]3C[C@H]([N+]3(C)CCCCC3)[C@@H]4OC(C)=O)[C@@]2(C)C[C@@H]1N1CCCCC1 [V, vecuronium]
surface viscosity (η) [6]: increase

Compound: NC(=O)NC1NC(=O)NC1=O (centres unmarked) [allantoin]
death caused by cisplatin (K562): reduction

Compound: O=C1C(O)=C([C@H]2CC[C@H](c3ccc(Cl)cc3)CC2)C(=O)c2ccccc21 [atovaquone]
inhibition of SmDHODH [7]: in the nanomolar range

Compound: CO/C1=C\C(C)=C\[C@@H](C)[C@@H](O)[C@@H](C)C/C(C)=C/C=C/[C@H](OC)[C@@H]([C@@H](C)[C@@H](O)[C@H](C)C2(O)C[C@@H](O)[C@H](C)[C@@H](C(C)C)O2)OC1=O (some centres unmarked) [bafilomycin]
Ki (gill V(H+)-ATPase; Grande river population): 21.2 ± 1.3 nM
Ki (gill V(H+)-ATPase; Tietê river population): 35.1 ± 1.1 nM

Compound: N=C(N)c1ccccc1 [benzamidine]
inhibition of CE-AρBza ([8]; BTEE as substrate): 100%
inhibition of CE-AρBza ([8]; L-TAME as substrate): 77%

significant inhibition of LbOYE activity [9]: did not show significant inhibition
Compound: CC(C)c1cc2c(c(O)c1O)C[C@@]13CCCC(C)(C)[C@@H]1C[C@@H]2O3 [brussonol]

MIC (C. neoformans (ATCC H99)): 0.047 to 3.12 µM (≈ 0.0141 to 0.935 µg/mL)
Compound: COC(=O)Nc1nc2ccc(Sc3ccccc3)cc2[nH]1 [fenbendazole]

MIC (C. neoformans (ATCC H99)): 0.047 to 3.12 µM (≈ 0.0147 to 0.979 µg/mL)
Compound: COC(=O)Nc1nc2cc(C(=O)c3ccc(F)cc3)ccc2[nH]1 [flubendazole]

MIC (C. neoformans (ATCC H99)): 0.047 to 3.12 µM (≈ 0.0139 to 0.923 µg/mL)
Compound: COC(=O)Nc1nc2ccc(C(=O)c3ccccc3)cc2[nH]1 [mebendazole]

Compound: CN(C)C(=N)N=C(N)N [metformin]
interaction with cisplatin (K562 cell line): synergism

Compound: C[C@@H]1O[C@@H](O[C@H]2C[C@@H](O)[C@]3(CO)[C@H]4[C@H](O)C[C@]5(C)[C@@H](C6=CC(=O)OC6)CC[C@]5(O)[C@@H]4CC[C@]3(O)C2)[C@H](O)[C@H](O)[C@H]1O [ouabain]
MV activity in the presence of inhibitor ([3]; 31P-NMR and colorimetric techniques): ~95%

Compound: CN[C@H](CC(C)C)C(=O)N[C@H]1C(=O)N[C@@H](CC(N)=O)C(=O)N[C@H]2C(=O)N[C@H]3C(=O)N[C@H](C(=O)N[C@H](C(=O)O)c4cc(O)cc(O)c4-c4cc3ccc4O)[C@H](O)c3ccc(c(Cl)c3)Oc3cc2cc(c3O[C@@H]2O[C@H](CO)[C@@H](O)[C@H](O)[C@H]2O[C@H]2C[C@](C)(N)[C@H](O)[C@H](C)O2)Oc2ccc(cc2Cl)[C@H]1O [vancomycin]
reduction of the MIC value in combination (S. saprophyticus): 4 times

Compound: DCPIB
Ca2+ influx (IGR39 cells): induces a rapid Ca2+ influx
currents ([10]; IGR37 cells): not in IGR37 cells
currents ([10]; Panc1, MiaPaca2 and IGR39 cells): dramatic increase of currents

Compound: N-acetylcysteine [NAC]
concentration shown to inhibit biofilm formation [11]: 12.5 mg/mL

binding constants (rat serum albumin (RSA)): moderate binding constants
Compound: Piperlongumine [PPL]

Compound: Rhodium chloride [RhCl3]
paw edema (paw edema): able to reduce paw edema

Compound: Se-[(2,2-dimethyl-1,3-dioxolan-4-yl) methyl] 4-chlorobenzoselenolate [Se-DMC]
NPSH content [12]: No alteration
RS levels in paw [12]: reduced the RS levels

Compound: sodium selenite [Na2SeO3]
reduction in cell number (LUCENA cells; 1000 μM, 48 hours): 66%
mitochondrial membrane potential (JC-1) (LUCENA cells; 24 hours): only at concentrations of 100 μM and 1000 μM
proliferation (K562 cells): significant reduction
mitochondrial membrane potential (JC-1) (K562 cells; 24 hours): significant reduction for all concentration
cell viability (MTT) (K562 cells; 48 hours): significant reduced only in 100 μM or 1000 μM
